Test results published in PubChem BioAssay AID1996.
≈ marks a conversion by molar mass, not a printed value.

settings: buffer; pH 7.4; 200.0 µM

Question: For `O=c1cc(-c2ccccc2O)nc(-c2ccccc2)[nH]1`, which solubility kinetic is on record?
Answer: 0.8 µg/mL (≈ 3.03 µM)

Question: With `O=C1CC(Cc2ccc(Cl)cc2)C(=O)N1c1cc(Cl)ccn1` (stereo not given) as the compound, how does the solubility kinetic read?
Answer: 29.4 µg/mL (≈ 87.7 µM)

Question: Which solubility kinetic does the source give for `CC(NC(=O)CCNC(=O)c1ccco1)c1ccccc1` (stereo not given) here?
Answer: > 42.9 µg/mL

Question: For `CCc1ccc(C(=O)CN2C(=O)NC3(CCc4ccccc43)C2=O)cc1` (stereo not given), which solubility kinetic is on record?
Answer: 6.5 µg/mL (≈ 18.7 µM)

Question: With `COC(=O)C1CCCN1S(=O)(=O)c1ccc([N+](=O)[O-])cc1` (stereo not given) as the compound, how does the solubility kinetic read?
Answer: > 47.1 µg/mL

Question: Which solubility kinetic does the source give for `c1ccc(CN2CCN(c3nc4ccccc4s3)CC2)cc1` here?
Answer: 1 µg/mL (≈ 3.23 µM)

Question: For `CCN(CC)c1ccc(/C=C2\SC(=O)N(C(C)C)C2=O)o1`, which solubility kinetic is on record?
Answer: 4.1 µg/mL (≈ 13.3 µM)

Question: With `COC(=O)c1ccc(/C=C/C(=O)OCC(=O)c2ccc[nH]2)cc1` as the compound, how does the solubility kinetic read?
Answer: 6.8 µg/mL (≈ 21.7 µM)

Question: For `O=C(Nc1nnc(-c2ccncc2)o1)c1ccccc1`, which solubility kinetic is on record?
Answer: > 39.9 µg/mL

Question: With `CC1CCN(C(=O)COC(=O)/C=C/c2ccc([N+](=O)[O-])cc2)CC1` as the compound, how does the solubility kinetic read?
Answer: 5.7 µg/mL (≈ 17.2 µM)

Question: With `Cc1ccc2cc(S(=O)(=O)NCCCN3CCOCC3)ccc2c1` as the compound, how does the solubility kinetic read?
Answer: > 52.3 µg/mL

Question: With `CC1(C)C(=O)N(c2ccccc2F)C(=O)c2ccccc21` as the compound, how does the solubility kinetic read?
Answer: 37.2 µg/mL (≈ 131 µM)

Question: Which solubility kinetic does the source give for `CCC(=O)NCc1csc(-c2cccs2)n1` here?
Answer: > 37.9 µg/mL

Question: For `O=C(COC(=O)c1ccc(O)cc1)NC(c1ccccc1)c1ccccc1`, which solubility kinetic is on record?
Answer: 1.7 µg/mL (≈ 4.7 µM)

Question: With `COc1cccc(CNc2ccc([N+](=O)[O-])cc2C)c1` as the compound, how does the solubility kinetic read?
Answer: 1.3 µg/mL (≈ 4.77 µM)

Question: For `O=[N+]([O-])c1ccc(Cc2cncc(O)c2)cc1`, which solubility kinetic is on record?
Answer: 34.1 µg/mL (≈ 148 µM)

Question: For `C/C(=N\OCC(=O)NC(C)C)c1cccs1`, which solubility kinetic is on record?
Answer: 32.5 µg/mL (≈ 135 µM)

Question: For `Cc1nc(N2CCN(c3ccccc3F)CC2)[nH]c(=O)c1C`, which solubility kinetic is on record?
Answer: 14.6 µg/mL (≈ 48.3 µM)

Question: With `Cc1cc2[nH]c3ccccc3c2cn1` as the compound, how does the solubility kinetic read?
Answer: > 27.3 µg/mL

Question: Which solubility kinetic does the source give for `O=C(CSc1nccc(-c2cccs2)n1)Nc1ccc(Cl)cc1` here?
Answer: 1.4 µg/mL (≈ 3.87 µM)

Question: Which solubility kinetic does the source give for `N#Cc1ccccc1N/C=C/C(=O)c1ccc(Cl)cc1` here?
Answer: 0.8 µg/mL (≈ 2.83 µM)

Question: Which solubility kinetic does the source give for `CCOc1ccc(S(=O)(=O)N(C)CC(=O)NC2CC2)cc1` here?
Answer: > 46.9 µg/mL

Question: Which solubility kinetic does the source give for `COC(=O)COc1c(/C=C\c2nc(O)c([N+](=O)[O-])c(=O)[nH]2)cccc1OC` here?
Answer: > 56.6 µg/mL

Question: With `O=c1cc(Cl)[nH]c(=O)n1Cc1ccc(F)cc1` as the compound, how does the solubility kinetic read?
Answer: 34.9 µg/mL (≈ 137 µM)

Question: Which solubility kinetic does the source give for `Cc1ccc(/C(=C\CN2CCCC2)c2ccccn2)cc1.Cl` here?
Answer: > 47.2 µg/mL

Question: For `CCN(CC(=O)NCc1cccs1)C(=O)c1cc(Br)ccc1O`, which solubility kinetic is on record?
Answer: > 59.6 µg/mL

Question: With `CC(CNC(=O)c1ccccc1Cl)c1ccccc1` (stereo not given) as the compound, how does the solubility kinetic read?
Answer: 36.6 µg/mL (≈ 134 µM)

Question: Which solubility kinetic does the source give for `COC(=O)c1ccc2c(c1)NC(=O)c1ccccc1S2` here?
Answer: 3.9 µg/mL (≈ 13.7 µM)

Question: With `COc1ccc(C(=O)OCC(=O)c2ccc[nH]2)c(OC)c1` as the compound, how does the solubility kinetic read?
Answer: > 43.4 µg/mL

Question: With `CCOc1ccccc1C(=O)NCCCCNC(=O)c1ccccc1OCC` as the compound, how does the solubility kinetic read?
Answer: 10.2 µg/mL (≈ 26.5 µM)

Question: Which solubility kinetic does the source give for `CN(CC(=O)Nc1ccc(F)cc1)C(=O)c1ccccc1OCc1ccc(F)cc1` here?
Answer: 30.4 µg/mL (≈ 74.1 µM)

Question: With `Cc1cc(NC(=O)C(C)SCC(=O)O)no1` (stereo not given) as the compound, how does the solubility kinetic read?
Answer: > 36.6 µg/mL

Question: With `CN1CCSc2ccc(C(=O)Nc3ccc(Cl)cc3)cc21` as the compound, how does the solubility kinetic read?
Answer: 0.5 µg/mL (≈ 1.57 µM)

Question: With `CSc1ccc(CN2C(=O)NC3(CCCCCCC3)C2=O)cc1` as the compound, how does the solubility kinetic read?
Answer: 5.6 µg/mL (≈ 16.8 µM)

Question: For `COc1ccc(NC(=O)CNc2ccccc2C(C)=O)cc1S(=O)(=O)N1CCOCC1`, which solubility kinetic is on record?
Answer: 63.9 µg/mL (≈ 143 µM)

Question: With `COCCCNC(=S)NCCc1ccc(F)cc1` as the compound, how does the solubility kinetic read?
Answer: > 40.6 µg/mL

Question: Which solubility kinetic does the source give for `O=C(Nc1nccs1)C(c1ccccc1)N1CCCC1` (stereo not given) here?
Answer: > 43.1 µg/mL

Question: Which solubility kinetic does the source give for `O=C(CCC(=O)N1CCN(c2ccccn2)CC1)c1cccs1` here?
Answer: > 49.4 µg/mL

Question: Which solubility kinetic does the source give for `CC(C)(C)NC(=O)N1CCN(c2ncccc2C(F)(F)F)CC1` here?
Answer: > 49.6 µg/mL

Question: For `CC1CCC(NC(=O)CCNC(=O)c2ccccc2)CC1` (stereo not given), which solubility kinetic is on record?
Answer: > 43.3 µg/mL

Question: For `Cc1ccc(C(=O)Nc2nc3ccccc3[nH]2)cc1`, which solubility kinetic is on record?
Answer: 2.4 µg/mL (≈ 9.55 µM)

Question: Which solubility kinetic does the source give for `COCCCNC(=S)N1CCCC(c2nc3cc(C)c(C)cc3[nH]2)C1` (stereo not given) here?
Answer: 53.2 µg/mL (≈ 148 µM)

Question: For `CC1CC2(CCCC2)Nc2ccc(F)cc21.Cl` (stereo not given), which solubility kinetic is on record?
Answer: 0.7 µg/mL

Question: With `Cc1nnc(SCC(=O)NC2CC2)s1` as the compound, how does the solubility kinetic read?
Answer: > 34.4 µg/mL

Question: Which solubility kinetic does the source give for `COC(=O)c1cccc(NC(=O)c2ccc3c(c2)C(=O)N(C(C)(C)C)C3=O)c1` here?
Answer: < 0.4 µg/mL

Question: With `Cc1ccc(S(=O)(=O)N(C)C)cc1NC(=O)Nc1ccccc1` as the compound, how does the solubility kinetic read?
Answer: < 0.2 µg/mL

Question: Which solubility kinetic does the source give for `CC(C)CN1C(=O)C(=O)N(CC(=O)c2ccc3c(c2)CCCC3)C1=O` here?
Answer: 47.2 µg/mL (≈ 138 µM)

Question: With `COc1cc(C(=O)Nc2ccc(Nc3ccccc3)cc2)cc(OC)c1OC` as the compound, how does the solubility kinetic read?
Answer: 4.4 µg/mL (≈ 11.6 µM)

Question: For `CCOc1ccc(S(=O)(=O)NC(C)C(=O)NCc2ccncc2)cc1` (stereo not given), which solubility kinetic is on record?
Answer: > 54.5 µg/mL

Question: With `COc1ccc2oc(=O)c(C(=O)NCc3ccc(F)cc3)cc2c1` as the compound, how does the solubility kinetic read?
Answer: 0.8 µg/mL (≈ 2.44 µM)

Question: Which solubility kinetic does the source give for `CCC1Oc2ccc(C)cc2N(CC(=O)NCc2cccs2)C1=O` (stereo not given) here?
Answer: 5.2 µg/mL (≈ 15.1 µM)

Question: With `CC(=O)Nc1cccc(NC(=O)C2C3C=CC(C3)C2C(=O)O)c1` (stereo not given) as the compound, how does the solubility kinetic read?
Answer: > 47.2 µg/mL

Question: Which solubility kinetic does the source give for `Cc1ccsc1CNCCc1ccccc1F` here?
Answer: 27.1 µg/mL (≈ 109 µM)

Question: For `CCOc1ccc(Br)cc1CNCc1cccnc1`, which solubility kinetic is on record?
Answer: > 48.2 µg/mL

Question: Which solubility kinetic does the source give for `C=CCN1CC[C@]23c4c5ccc(O)c4O[C@H]2C(=O)CC[C@@]3(O)[C@H]1C5.Cl` here?
Answer: > 54.6 µg/mL

Question: With `Cc1cccc(/N=C2/NC(=O)C(Cc3ccccc3)S2)n1` (stereo not given) as the compound, how does the solubility kinetic read?
Answer: 0.3 µg/mL (≈ 1.01 µM)

Question: For `O=C(CN1CCCCC1)c1c[nH]c2ccccc12`, which solubility kinetic is on record?
Answer: > 36.3 µg/mL

Question: For `Cc1cccc(N2C(S)=C(C#N)C(=O)NC2c2ccco2)c1` (stereo not given), which solubility kinetic is on record?
Answer: > 46.7 µg/mL

Question: For `Cc1ccc(OC(C)C(=O)Nc2cc(C)on2)cc1` (stereo not given), which solubility kinetic is on record?
Answer: 36.2 µg/mL (≈ 139 µM)

Question: Which solubility kinetic does the source give for `CSc1ccc(Cl)c(C(=O)OCC(=O)N2CCNC2=O)c1` here?
Answer: > 49.3 µg/mL

Question: For `O=C(Cc1nc2ccccc2[nH]1)c1ccc([N+](=O)[O-])cc1`, which solubility kinetic is on record?
Answer: 37.8 µg/mL (≈ 134 µM)

Question: Which solubility kinetic does the source give for `O=C(Nc1ccc(NC(=O)c2cccs2)cc1)c1cccnc1` here?
Answer: 0.4 µg/mL (≈ 1.24 µM)

Question: With `Cc1ccc(CNCC(O)c2ccccc2)s1.Cl` (stereo not given) as the compound, how does the solubility kinetic read?
Answer: > 42.6 µg/mL

Question: Which solubility kinetic does the source give for `CN1CCN/C1=C(/C(Cl)=C(Cl)Cl)[N+](=O)[O-]` here?
Answer: > 40.9 µg/mL

Question: With `COC(=O)c1[nH]c2ccccc2c1NC(=O)c1ccccc1F` as the compound, how does the solubility kinetic read?
Answer: 2.1 µg/mL (≈ 6.72 µM)

Question: With `Cc1ccc2nc(CCl)[n+]([O-])c(-c3ccccc3)c2c1` as the compound, how does the solubility kinetic read?
Answer: 27.8 µg/mL (≈ 97.6 µM)

Question: Which solubility kinetic does the source give for `COCCNc1nc2nonc2nc1N(C)Cc1ccc(C)cc1` here?
Answer: > 49.3 µg/mL

Question: Which solubility kinetic does the source give for `CO/N=C(\C)C(Cc1ccc(Cl)nc1)Cc1ccc(Cl)nc1` here?
Answer: > 50.7 µg/mL

Question: Which solubility kinetic does the source give for `COc1ccc(CCNC(=O)Nc2ccc(F)cc2F)cc1OC` here?
Answer: 1.6 µg/mL (≈ 4.76 µM)

Question: Which solubility kinetic does the source give for `Cc1ccc(S(=O)(=O)CC(=O)NCc2ccccc2)cc1` here?
Answer: 29.7 µg/mL (≈ 97.9 µM)

Question: With `O=c1[nH]c(CSc2ccccc2)nc2c1oc1ccccc12` as the compound, how does the solubility kinetic read?
Answer: 2.2 µg/mL (≈ 7.13 µM)

Question: Which solubility kinetic does the source give for `NC(=O)c1coc(-c2ccccc2)n1` here?
Answer: > 28.2 µg/mL

Question: With `O=c1c2ccccc2ncn1-c1cccc([N+](=O)[O-])c1` as the compound, how does the solubility kinetic read?
Answer: 3.8 µg/mL (≈ 14.2 µM)

Question: Which solubility kinetic does the source give for `CCC1(C)Cc2ccccc2-c2nc(NCCCO)n(C)c(=O)c21` (stereo not given) here?
Answer: > 49.1 µg/mL

Question: Which solubility kinetic does the source give for `Cc1ccnc(NCc2ccccc2O)c1` here?
Answer: 23 µg/mL (≈ 107 µM)

Question: For `O=C(/C=C/c1cccc(C(F)(F)F)c1)OCC(=O)N1CCN(c2ccccc2)CC1`, which solubility kinetic is on record?
Answer: 3.7 µg/mL (≈ 8.84 µM)

Question: For `COc1cc(C(=O)NCc2ccc3[nH]c(C)cc3c2)cc(OC)c1OC`, which solubility kinetic is on record?
Answer: 12.5 µg/mL (≈ 35.3 µM)

Question: With `CCc1c(O)nc(SCC(=O)N(CC)CC)[nH]c1=O` as the compound, how does the solubility kinetic read?
Answer: > 42.8 µg/mL

Question: For `Cn1cccc1C(=O)OCC(=O)NC(=O)c1ccc(Cl)cc1`, which solubility kinetic is on record?
Answer: 5.4 µg/mL (≈ 16.8 µM)

Question: Which solubility kinetic does the source give for `N/C(=N\OC(=O)CCN1C(=O)c2ccccc2C1=O)c1ccccn1` here?
Answer: 49.6 µg/mL (≈ 147 µM)

Question: With `Cl.Fc1ccc(CNCc2ccc3c(c2)OCO3)cc1` as the compound, how does the solubility kinetic read?
Answer: > 44.4 µg/mL

Question: With `O=C(c1ccc(Cl)cc1)N1CCN(c2cccc3[nH]ccc23)CC1` as the compound, how does the solubility kinetic read?
Answer: 35.6 µg/mL (≈ 105 µM)

Question: For `CCC(=O)N/C(=N/c1nc(C)cc(C)n1)Nc1ccccc1`, which solubility kinetic is on record?
Answer: 13 µg/mL (≈ 43.7 µM)

Question: For `COc1ccc(CCNC(=O)Nc2cccc([N+](=O)[O-])c2)cc1`, which solubility kinetic is on record?
Answer: 2.3 µg/mL (≈ 7.29 µM)

Question: Which solubility kinetic does the source give for `Cc1ccsc1C(=O)OCC(=O)NC1CCS(=O)(=O)C1` (stereo not given) here?
Answer: > 47.6 µg/mL
